One data set has as its target p38-MK2 (Homo sapiens, UniProt P49137+Q16539). As to conditions: patients with rheumatoid arthritis, preliminary clinical trial results; cited from earlier work.
A further data set addresses T1, p38α/MK2 (Homo sapiens, UniProt P49137+Q16539).
T1 construct: purchased R & D systems (p38 alpha); Thermo (MK2) 5477-KS-010; PV3316
The data set can be described thus: Inhibition of p38α/MK2 enzyme activity (TR-FRET, ULight-CREBtide). The format is biochemical. On the procedure: (§1) 50 nM ULight-CREBtide and 25 μM ATP (ATP Solution) were added, and the mixture was reacted at room temperature for 1.5 hours. An equal volume of a detection and termination mixed solution (1×LANCE detection buffer containing 20 mM EDTA and 2 nM Europium-anti-phospho-CREB) was added, the mixture was mixed until uniform and centrifuged, a plate sealing film was attached, and a reaction was performed at room temperature for 1 hour. TR-FRET program of the EnVision instrument was used to read the plate, and the fluorescence value of each well was detected at 665 nm/615 nm.
(§2) Calculation was performed on the raw data (665 nm/615 nm reading ratio) according to the following formula to obtain the inhibition rate. Inhibition rate %=[(mean value in positive control well−value in sample well)/(mean value in positive control well−mean value in negative control well)]×100, wherein the positive control well was a reaction well without a compound […], and the negative control well was a reaction wells without an enzyme.
(§3) Log(inhibitor) vs. response−Variable slope (four parameters) in GraphPad Prism 6 was used for fitting equation analysis of the compound concentration and the corresponding inhibition rate, and the curve was fitted to obtain the IC50 value of the compound.
(§4) The fitting calculation equation was Y=Bottom+(Top−Bottom)/(1+10^((Log IC50−X)*HillSlope)).

The target of data set [1] is T2, p38a (Active p38 alpha Protein) (Homo sapiens, UniProt Q16539).
T2 construct: purchased R & D systems 5477-KS-010
T2 sequence (Q16539 whole entry): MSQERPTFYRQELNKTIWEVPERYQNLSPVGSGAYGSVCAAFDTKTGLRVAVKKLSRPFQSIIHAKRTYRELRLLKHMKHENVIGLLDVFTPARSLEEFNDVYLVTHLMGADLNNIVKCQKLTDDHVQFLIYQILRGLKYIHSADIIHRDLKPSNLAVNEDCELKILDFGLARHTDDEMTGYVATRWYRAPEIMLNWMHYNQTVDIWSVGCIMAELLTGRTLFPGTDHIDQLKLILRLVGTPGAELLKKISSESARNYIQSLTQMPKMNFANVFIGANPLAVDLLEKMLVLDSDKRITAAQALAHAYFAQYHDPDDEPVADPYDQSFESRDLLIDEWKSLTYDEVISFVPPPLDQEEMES
The data set is described as follows: Inhibition of p38 enzyme activity (TR-FRET, ULight-MBP). It counts as biochemical. As to conditions: 3 nM p38a, 50 μM ATP. As to the method:
as §1, with “Experimental method for determining the p38 enzyme activity: 3 nM p38a (Active p38 alpha Protein) and compounds diluted in a certain concentration gradient were incubated in 1× enzyme reaction buffer (50 mM HEPES pH 7.5, 1 mM EGTA, 10 mM MgCl2, 2 mM DTT, 0.01% Tween-20) for 1 hour. 50” for “50”, “ULight-MBP” for “ULight-CREBtide”, “50” for “25”, “(ATP 10 mM” for “(ATP”, “Europium-anti-P-MBP)” for “Europium-anti-phospho-CREB)”
as §2, §3, §4
(In general: In TR-FRET formats the signal depends on donor and acceptor labels being close together.)

In the next data set the test system is p-Hsp27 in U937 cells. The data set can be described thus: Inhibition of p-Hsp27 in LPS-stimulated U937 cells (ELISA). The format is cell-based. Particulars: Homo sapiens, U-937; PMA-differentiated U937, 10 ng/ml LPS 0.5 hours; read-out: U937 cell activity test p-HSP27 IC50. As to the method:
U937 cells were treated with 20 ng/ml PMA for differentiation overnight, and after replacement with a fresh culture medium, the U937 cells were rested overnight. After differentiation, the U937 cell were digested and counted, and 25,000 cells per well were seeded in a 96-well plate until the cells adhered to the wall. A compound concentration gradient was prepared, the cells were pretreated with the compound for 1 hour (the highest final concentration of the compound was 1 μM, diluted in 3-fold concentration gradient), and 10 ng/ml LPS (Lipopolysaccharides from Escherichia coli O111:B4) was added for stimulation for 0.5 hours. After the cells were washed with PBS, the cells were lysed with a lysis solution. p-Hsp27 in the cell lysate was detected by using Phospho-HSP27 (S78/S82) DuoSet IC ELISA kit. For specific steps, reference could be made to the standard steps provided by the kit manufacturer.
Calculation of p-Hsp27 inhibition rate: Inhibition rate %=[(mean value of p-Hsp27 in positive control well−mean value of p-Hsp27 in sample well)/(mean value of p-Hsp27 in positive control well−mean value of p-Hsp27 in negative control well)]×100%, wherein the positive control well was a well without a compound (DMSO-treated well), and the negative control well was a well without LPS stimulation.
Dose response curve fitting: Log(inhibitor) vs. response−Variable slope (four parameters) in GraphPad Prism 6 was used for fitting equation analysis of the compound concentration and the corresponding inhibition rate, and the curve was fitted to obtain the IC50 value of the compound.
as §4
On the technique in general: ELISA stands for enzyme-linked immunosorbent assay.

The subject of a further data set is TNF-α in U937 cells. The data set is described as follows: Inhibition of the expression level of TNF-α in LPS-stimulated U937 cells (ELISA). As to conditions: Homo sapiens, U-937; PMA-differentiated U937, 10 ng/ml LPS 4 hours; read-out: U937 cell activity test TNF-α IC50. It counts as cell-based. On the procedure: U937 cells were treated with 20 ng/ml PMA for differentiation overnight, and after replacement with a fresh culture medium, the U937 cells were rested overnight. After differentiation, the U937 cells were digested and counted, and 50,000 cells per well were seeded in a 96-well plate until the cells adhered to the wall. A compound concentration gradient was prepared, the cells were pretreated with the compound for 1 hour (the highest final concentration of the compound was 1 μM, diluted in 3-fold concentration gradient), and 10 ng/ml LPS (Lipopolysaccharides from Escherichia coli O111:B4) was added for stimulation for 4 hours. Thereafter, the culture supernatant was collected by centrifugation and used for subsequent ELISA to detect the concentration of TNF-α in the supernatant. The concentration of TNF-α was detected according to the standard steps provided by the ELISA kit manufacturer.
A standard curve was plotted by a linear regression method from a TNF-α standard, and the concentration of TNF-α in a sample was derived by conversion according to the standard curve.
Calculation of inhibition rate: Inhibition rate %=[(mean value of TNF-α concentration in positive control well−mean value of TNF-α concentration in sample well)/(mean value of TNF-α concentration in positive control well−mean value of TNF-α concentration in negative control well)]×100%, wherein the positive control well was a well without a compound (DMSO-treated well), and the negative control well was a culture medium well.
Dose response curve fitting: Log(inhibitor) vs. response−Variable slope (four parameters) in GraphPad Prism 6 was used for fitting equation analysis of the compound concentration and the corresponding inhibition rate, and the curve was fitted to obtain the IC50 value of the compound. The fitting calculation equation was Y=Bottom+(Top−Bottom)/(1+10^((Log IC50−X)*HillSlope)).

The nature of data set [2]: Pharmacokinetic assay in SD rats (PO administration). Particulars: male, Sprague-Dawley (SD), rat, 2 mg/kg, plasma. It counts as in vivo. On the procedure:
SD rats were used as test animals to study the pharmacokinetic behavior of the compounds of the present invention in the rat body (plasma) after oral administration at a dose of 5 mg/kg or 2 mg/kg and intravenous administration at a dose of 1 mg/kg.
3 SD rats/group, male, from Shanghai Jiesijie Experimental Animal Co., Ltd., animal production license number (SCXK (Shanghai) 2013-0006 N0.311620400001794).
PO, 10% solutol HS15 was dissolved by ultrasound and prepared into a clear solution or homogeneous suspension.
3 SD rats/group, male; After fasting overnight, the rats were administered p.o. at a dose of 5 mg/kg or 2 mg/kg with a dosage volume of 10 mL/kg and i.v. at a dose 1 mg/kg with a dosage volume of 5 mL/kg, respectively.
At 0.25, 0.5, 1, 2, 4, 6, 8, and 24 h after oral administration in the rats and at 0.083, 0.25, 0.5, 1, 2, 4, 6, 8, and 24 h after intravenous administration in the rats, 0.2 mL of blood was collected from the jugular vein, placed in an EDTA-K2 test tube, centrifuged at 4° C. at 6000 rpm for 6 min to separate plasma, which was stored at −80° C.
• 1) 100 μL of acetonitrile was added to 20 μL of plasma sample for pelleting, and it was mixed and centrifuged at 3500×g for 5-20 min. • 2) The treated supernatant solution was taken and subjected to LC/MS/MS to analyze the concentrations of the test compounds. LC/MS/MS analysis instrument: AB Sciex API 4000 Qtrap.
• Liquid phase conditions: Shimadzu LC-20AD pump • Chromatographic column: Waters Xbridge C18 5 μm, 4.6×50 mm, mobile phase: liquid A was 0.1% aqueous formic acid solution, and liquid B was methanol • Flow rate: 1.0 mL/min • Elution time: 0-4.0 min, the eluent was as follows:
The main pharmacokinetic parameters were calculated using WinNonlin 6.1.

Broadly, the MRT is a mean duration of stay, worked out from the concentration-time curve. In general, Tmax refers to the time from dosing to the highest level.

T1 sequence (Q16539 whole entry): as above
T1 sequence (P49137 whole entry): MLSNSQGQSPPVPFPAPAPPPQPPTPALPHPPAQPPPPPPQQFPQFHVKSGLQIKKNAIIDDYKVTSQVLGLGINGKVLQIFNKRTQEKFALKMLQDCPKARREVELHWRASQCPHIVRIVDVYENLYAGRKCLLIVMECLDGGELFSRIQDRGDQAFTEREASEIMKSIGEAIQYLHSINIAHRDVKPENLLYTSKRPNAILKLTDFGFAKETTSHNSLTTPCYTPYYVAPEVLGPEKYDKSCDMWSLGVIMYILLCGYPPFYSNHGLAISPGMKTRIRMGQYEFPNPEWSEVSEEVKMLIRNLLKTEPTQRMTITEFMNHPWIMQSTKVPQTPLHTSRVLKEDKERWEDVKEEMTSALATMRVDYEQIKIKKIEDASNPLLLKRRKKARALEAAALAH
Chain of p38-MK2 (Q16539 whole entry): as the sequence (Q16539 whole entry) above
Chain of p38-MK2 (P49137 whole entry): as the sequence (P49137 whole entry) above

In the case of `Cc1cnc(-c2ccnc(C(C)(C)O)n2)cc1-n1c(C)cc(OCc2ncc(F)cc2F)c(Cl)c1=O` [ATI-450], at p38-MK2, the efficacy entry is “outstanding and lasting efficacy”; the safety and tolerability entry was “safe and tolerable”.
Regarding `[2H]C([2H])(Oc1cc2n(c(=O)c1Cl)-c1c(cnc(-c3ccnc(C(C)(C)NC(C)=O)n3)c1F)CCCC2)c1ncc(F)cc1F` [Example 7-1, (R)—N-(2-(4-(11-chloro-10-((3,5-difluoropyridin-2-yl)methoxy-d2)-1-fluoro-12-carbonyl-6,7,8,12-tetrahydro-5H-dipyrido[1,2-a:3,4′-g]azocin-2-yl)pyrimidin-2-yl)propan-2-yl)acetamide], the IC50 at p38α/MK2 (0.06 nM p38a, 1.2 nM MK2, 25 μM ATP, read-out: p38/MK2 IC50) amounted to 340 pM; in data set [1] it was 49100 pM; in the data set on p-Hsp27 in U937 cells it was 350 pM; with TNF-α in U937 cells, 340 pM. Besides, the “Selectivity ratio (p38 IC50 / p38/MK2 IC50)” value at p38α/MK2 (selectivity ratio p38 IC50 over p38/MK2 IC50) is recorded as 144. Besides, in data set [2] (read-out: Area under the curve AUC0-∞), the AUC(0-inf) worked out at 7350 ng·h/mL. For the same compound, the half-life in data set [2] (read-out: Half-life t1/2 (converted)) was 1.4 h. For the same compound, the MRT in data set [2] (read-out: Mean residence time MRT) is 2.5 h. Also, the Cmax in data set [2] (read-out: Plasma concentration Cmax) was determined as 2160 ng/mL. Moreover, in data set [2] (read-out: Time to peak tmax), the Tmax was 1 h.

Values taken from patent US20250066360A1, “PYRIDINE-CONTAINING POLYCYCLIC DERIVATIVE, AND PREPARATION METHOD THEREFOR AND USE THEREOF” (SHANGHAI HANSOH BIOMEDICAL CO., LTD., priority 2022, published 2025).
